Structures are written as SMILES.

Data on 18 compounds can be found in ChEMBL document CHEMBL1146551, “Simplified tetrandrine congeners as possible antihypertensive agents with a dual mechanism of action” (J Nat Prod, 2003).

Data set [1] concerns the target T1, Adrenergic receptor alpha-1 (Rattus norvegicus, UniProt P15823+P23944+P43140).
T1 sequence (P15823 whole entry): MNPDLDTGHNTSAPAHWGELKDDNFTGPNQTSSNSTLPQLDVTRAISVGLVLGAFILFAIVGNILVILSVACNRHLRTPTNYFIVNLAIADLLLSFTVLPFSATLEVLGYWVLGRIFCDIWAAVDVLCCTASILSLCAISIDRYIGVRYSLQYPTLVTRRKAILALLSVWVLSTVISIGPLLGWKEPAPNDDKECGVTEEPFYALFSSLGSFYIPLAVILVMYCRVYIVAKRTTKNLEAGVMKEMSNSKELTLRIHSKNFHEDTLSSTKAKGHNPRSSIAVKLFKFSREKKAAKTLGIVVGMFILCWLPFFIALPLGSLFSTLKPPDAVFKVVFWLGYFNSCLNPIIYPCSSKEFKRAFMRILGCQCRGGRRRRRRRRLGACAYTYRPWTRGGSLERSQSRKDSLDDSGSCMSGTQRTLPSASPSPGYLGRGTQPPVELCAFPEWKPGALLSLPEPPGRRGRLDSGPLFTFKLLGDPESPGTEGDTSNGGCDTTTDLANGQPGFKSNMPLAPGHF
T1 sequence (P23944 whole entry): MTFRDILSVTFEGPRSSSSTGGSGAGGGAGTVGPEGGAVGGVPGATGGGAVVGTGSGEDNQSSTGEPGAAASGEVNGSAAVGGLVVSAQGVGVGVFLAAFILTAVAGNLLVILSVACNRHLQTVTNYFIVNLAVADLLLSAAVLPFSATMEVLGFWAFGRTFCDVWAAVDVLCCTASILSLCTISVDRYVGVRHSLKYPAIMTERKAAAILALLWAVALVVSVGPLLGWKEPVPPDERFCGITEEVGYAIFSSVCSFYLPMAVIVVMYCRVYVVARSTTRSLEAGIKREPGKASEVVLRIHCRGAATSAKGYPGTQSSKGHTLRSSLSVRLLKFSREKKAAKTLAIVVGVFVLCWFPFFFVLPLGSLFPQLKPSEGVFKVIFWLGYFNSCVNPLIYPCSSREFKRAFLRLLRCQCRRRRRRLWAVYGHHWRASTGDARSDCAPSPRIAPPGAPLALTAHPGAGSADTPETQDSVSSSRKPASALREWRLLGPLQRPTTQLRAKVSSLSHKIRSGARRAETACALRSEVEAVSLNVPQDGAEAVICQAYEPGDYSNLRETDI
T1 sequence (P43140 whole entry): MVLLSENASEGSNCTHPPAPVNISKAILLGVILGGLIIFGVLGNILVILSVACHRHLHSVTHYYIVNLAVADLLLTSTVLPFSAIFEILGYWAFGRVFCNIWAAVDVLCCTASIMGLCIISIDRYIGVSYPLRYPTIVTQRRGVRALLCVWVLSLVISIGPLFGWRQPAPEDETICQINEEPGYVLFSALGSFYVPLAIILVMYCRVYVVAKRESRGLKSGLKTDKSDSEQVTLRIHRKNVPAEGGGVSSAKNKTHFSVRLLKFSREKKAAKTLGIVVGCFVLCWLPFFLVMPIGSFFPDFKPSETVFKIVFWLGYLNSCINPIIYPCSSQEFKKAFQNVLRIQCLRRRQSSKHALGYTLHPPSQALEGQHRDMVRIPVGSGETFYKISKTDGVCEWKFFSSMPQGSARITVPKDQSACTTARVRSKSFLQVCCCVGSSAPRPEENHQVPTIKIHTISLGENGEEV
The data set can be described thus: Displacement of [3H]prazosin from alpha1 adrenergic receptor in Wistar rat cerebral cortex membrane. The data set is classed as tissue-based. (Loss of bound radioactivity is the signal in a displacement assay; it reports binding, not function.)

Data set [2] deals with Aorta. The data set can be described thus: Vasorelaxant activity against noradrenaline-induced contraction in Wistar rat thoracic aorta in presence of calcium. The format is functional, tissue-based.
The subject of data set [3] is Aorta. The data set can be described thus: Vasorelaxant activity against KCl-induced contraction in Wistar rat thoracic aorta at 100 uM in presence of calcium. The data set is classed as functional. Details: scale not given: the % may be the effect or the level left.
Data set [4] has as its target Voltage-gated L-type calcium channel (Rattus norvegicus, UniProt P22002+Q02485+P27732). The data set can be described thus: Displacement of [3H]diltiazem from benzothiazepine binding site of L-type calcium channel in Wistar rat cerebral cortex membrane.
The test system of data set [5] is Aorta. The data set can be described thus: Vasorelaxant activity against KCl-induced contraction in Wistar rat thoracic aorta in presence of calcium. The data set is classed as functional, tissue-based.

For `COc1cc2c(cc1O)C(Cc1ccc(O)cc1)NCC2` (racemic) [COCLAURINE], the pKi in data set [1] was found to be 5.97. Moreover, the IC50 in data set [2] is 17.4 µM. Also, the Activity in data set [3] worked out at 17.2%; in data set [4] (rat) it was 30%.
As for `CCN1CCc2cc(OC)c(O)cc2C1Cc1ccc(O)cc1` (racemic), the pKi in data set [1] is given as 5.29; in data set [4] it was 4.86.
In the case of `COc1ccc(CC2c3cc(OCc4ccccc4)c(OC)cc3CCN2C)cc1` (racemic), the figures for the pKi in data set [1] and in data set [4] were 5.73 and 5.82, respectively. Besides, the IC50 in data set [2] is 4.27 µM; in data set [5] it was 11.5 µM.
As to `COc1ccc2cc1Oc1ccc(cc1)C[C@H]1c3cc(c(OC)cc3CCN1C)Oc1c(OC)c(OC)cc3c1[C@H](C2)N(C)CC3` [FANCHININ], the pKi in data set [1] amounted to 6.16; in data set [4], 6.13. Further, the IC50 was 29.5 µM in data set [2] and 13.5 µM in data set [5].
For `COc1ccc(CC2NCCc3cc(OC)c(O)cc32)cc1` (racemic), the pKi in data set [1] was found to be 4.92; in data set [4], 4.49.
Regarding `COc1cc2c(cc1O)C(Cc1ccc(OCc3ccccc3)cc1)NCC2` (racemic), the pKi was 5.69 in data set [1] and 5.57 in data set [4]. For the same compound, the half-maximal inhibitory concentration (IC50) in data set [2] was 16.2 µM; in data set [5] it was 13.8 µM.
`COc1ccc(CC2NCCc3cc(OC)c(OCc4ccccc4)cc32)cc1` (racemic) returned a pKi in data set [1] of 5.34.
As to `COc1ccc(CC2c3cc(OC)c(OC)cc3CCN2C)cc1` (racemic), the pKi in data set [1] was 5.1; in data set [4], 5.38. Also, the 50% inhibitory concentration (IC50) in data set [2] is 66.1 µM; in data set [5], 14.8 µM.
On the same counts, the results for `COc1ccc(CC2c3cc(O)c(OC)cc3CCN2C)cc1` (racemic) are 5.29, 4.9, 25.1 µM and 72.4 µM.
As to `COc1cc2c(cc1O)C(Cc1ccc(O)cc1)N(C)CC2` (racemic) [METHYL COCLAURINE], the pKi in data set [1] was 5.63; in data set [4], 4.64. Also, the IC50 in data set [2] is 24.5 µM; in data set [5], 67.6 µM.
In the case of `COc1cc2c(cc1OC)C(Cc1ccc(O)cc1)NCC2` (racemic), in data set [1], the pKi came out at 5.23.
On to `CCCN1CCc2cc(OC)c(OCc3ccccc3)cc2C1Cc1ccc(OCc2ccccc2)cc1` (racemic), for which the pKi worked out at 5.05 in data set [1] and 5.75 in data set [4].
`COc1cc2c(cc1OCc1ccccc1)C(Cc1ccc(O)cc1)NCC2` (racemic): the pKi in data set [1] is listed as 5.49; in data set [4], 5.6. In addition, the IC50 was 13.2 µM in data set [2] and 7.59 µM in data set [5].
For the compound `CCN1CCc2cc(OC)c(OC)cc2C1Cc1ccc(O)cc1` (racemic), the figures for the pKi in data set [1] and in data set [4] were 5.07 and 4.51, respectively.
Consider `COc1cc2c(cc1OC)C(Cc1ccc(O)cc1)N(C)CC2` (racemic), for which the negative logarithm of the Ki (pKi) in data set [1] worked out at 5.14; in data set [4] it was 5.02. The results for the IC50 in data set [2] and in data set [5] were 209 µM and 115 µM, respectively.
For the compound `COc1cc2c(cc1OCc1ccccc1)C(Cc1ccc(OCc3ccccc3)cc1)NCC2` (racemic), the results for the negative-log Ki (pKi) in data set [1] and in data set [4] were 5.02 and 4.61, respectively.
`COc1cc2c(cc1OCc1ccccc1)C(Cc1ccc(OCc3ccccc3)cc1)N(C)CC2` (racemic): the negative-log Ki (pKi) in data set [1] is listed as 5.12; in data set [4], 5.74.
Consider `COc1cc2c(cc1OCc1ccccc1)C(Cc1ccc(O)cc1)N(C)CC2` (racemic), for which the negative logarithm of the Ki (pKi) in data set [1] is recorded as 5.49; in data set [4] it was 5.7. The IC50 was 8.71 µM in data set [2] and 5.75 µM in data set [5].

As usually defined, the pKi is the negative decadic logarithm of the Ki, by convention in mol/L. Broadly, the IC50 is the concentration needed to halve the response being measured.
